The text below walks through data of US10040838B2, “CRHR2 peptide agonists and uses thereof” (JANSSEN PHARMACEUTICA NV, priority 2008, dated 2018).

For this assay, the system named is isolated rat aortic rings. In words: Vascular smooth muscle relaxation, isolated rat aortic rings pre-contracted with phenylephrine. The text has this:
The ability of h-SCP (SEQ ID NO:1) to relax vascular smooth muscle was examined in isolated, rat aortic rings pre-contracted with phenylephrine (PE) (see FIG. 6). […] The responses caused by h-SCP (SEQ ID NO:1) were inhibited by anti-sauvagine-30 (SEQ ID NO:118).

No end group written: not given here.

“TKFTLSLDVPTNIMNLLFNIAKAKNLRAQAAANAHLMAQI-NH2 [SEQ ID NO: 1, TKFTLSLDVPTNIMNLLFNIAKAKNLRAQAAANAHLMAQI-NH2, reference compound]”: the pA50 relaxation (rat aortic rings pre-contracted with phenylephrine) was 6.05±0.12. Where the note is “relaxation of rat aortic rings”, the “fold less potent than h-UCN2” value was 10 fold.
